Source: US20250171462A1 (NICO Therapeutics, Inc., priority 2022, published 2025)
Read-outs that look alike come from different tables or passages of the source.

Target: T1, full-length SARM1 (FL-SARM1) (Homo sapiens, UniProt Q6SZW1)
T1 sequence (Q6SZW1 28-724): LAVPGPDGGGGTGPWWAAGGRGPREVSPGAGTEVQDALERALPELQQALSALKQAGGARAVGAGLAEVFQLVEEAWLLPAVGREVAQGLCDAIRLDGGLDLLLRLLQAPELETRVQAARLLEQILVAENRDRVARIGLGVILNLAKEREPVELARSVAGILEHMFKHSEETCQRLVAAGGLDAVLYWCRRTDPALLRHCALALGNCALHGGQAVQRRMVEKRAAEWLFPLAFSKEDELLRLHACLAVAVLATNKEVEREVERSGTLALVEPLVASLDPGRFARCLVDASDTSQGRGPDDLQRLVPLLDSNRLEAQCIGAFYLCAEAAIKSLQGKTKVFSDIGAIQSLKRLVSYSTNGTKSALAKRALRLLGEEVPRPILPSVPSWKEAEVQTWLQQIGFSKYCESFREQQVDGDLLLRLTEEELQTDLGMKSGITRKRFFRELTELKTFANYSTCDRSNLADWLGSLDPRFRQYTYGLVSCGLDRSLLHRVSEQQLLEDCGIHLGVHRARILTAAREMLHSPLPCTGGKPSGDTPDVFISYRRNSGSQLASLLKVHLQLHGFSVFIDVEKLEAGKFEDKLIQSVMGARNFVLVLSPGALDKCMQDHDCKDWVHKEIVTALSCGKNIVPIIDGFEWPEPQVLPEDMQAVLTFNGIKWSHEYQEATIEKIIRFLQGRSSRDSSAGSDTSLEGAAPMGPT
Assay: FL-SARM1 cellular lysate assay (NAD/NADH-Glo detection of remaining NAD+, NMN-activated)

[1] = Activity (μM) (IC50), 11 point curve
[2] = read-out: Activity (IC50 class), 11 point curve
[3] = Activity (IC50 class), 11 point curve

**Q.** For `Cc1c(Br)cc(NC(=O)N2C3CCCC2C3)cc1-c1ccccn1` [Example 78, N-(3-bromo-4-methyl-5-(pyridin-2-yl)phenyl)-6-azabicyclo[3.1.1]heptane-6-carboxamide], which IC50 [1] is on record?
**A.** The IC50 was 0.7 µM.

**Q.** What about the IC50 [2] of the same molecule?
**A.** Its IC50 is 0.0001 to 1 µM.

**Q.** For `Cc1ccc(NC(=O)N2C3CCCC2C3)cc1-c1ncccc1C#N` [Example 33, N-(3-(3-cyanopyridin-2-yl)-4-methylphenyl)-6-azabicyclo[3.1.1]heptane-6-carboxamide], which IC50 [3] is on record?
**A.** Its IC50 is 1 to 10 µM.

**Q.** What about the IC50 [1] of the same molecule?
**A.** Its IC50 is 1.2 µM.

**Q.** For `Cc1ccc(NC(=O)N2C3C[C@@H](C)C[C@H]2C3)cc1-c1cncc(Cl)n1` [Example 217, cis-N-(3-(6-chloropyrazin-2-yl)-4-methylphenyl)-3-methyl-6-azabicyclo[3.1.1]heptane-6-carboxamide], which IC50 [1] is on record?
**A.** Its IC50 is 0.04 µM.

**Q.** What about the IC50 [2] of the same molecule?
**A.** The IC50 was 0.0001 to 1 µM.

**Q.** What does the source list for `Cc1ccc(NC(=O)[C@@H]2CC2(F)F)cc1-c1ccc(C2CC2)cn1` [Example 149, (1S)-N-[3-(5-cyclopropylpyridin-2-yl)-4-methylphenyl]-2,2-difluorocyclopropane-1-carboxamide]?
**A.** IC50 [3]: > 10 µM; IC50 [1]: 17 µM

**Q.** How did the IC50 [1] turn out when `Cc1ccc(NC(=O)[C@H]2C[C@H]2c2ccccc2)cc1-c1cccnn1` [Example 298, (1S,2R)-N-(4-methyl-3-pyridazin-3-ylphenyl)-2-phenylcyclopropane-1-carboxamide] was run?
**A.** Its IC50 is 0.6 µM.

**Q.** What about the IC50 [2] of the same molecule?
**A.** The IC50 was 0.0001 to 1 µM.

**Q.** Which results are given for `Cc1ccc(NC(=O)[C@@H]2CC2(F)F)cc1-c1ccc(C(F)(F)F)cn1` [Example 154, (1S)-2,2-difluoro-N-[4-methyl-3-[5-(trifluoromethyl)pyridin-2-yl]phenyl]cyclopropane-1-carboxamide]?
**A.** IC50 [3]: 1 to 10 µM; IC50 [1]: 9.9 µM

**Q.** With `Cc1ccc(NC(=O)N2C3CCCC2C3)cc1-c1ncc(F)c(C)n1` [Example 326] as the molecule, how does the IC50 [3] read?
**A.** The IC50 was 1 to 10 µM.

**Q.** What about the IC50 [1] of the same molecule?
**A.** The IC50 was 1.4 µM.

**Q.** For `Cc1ccc(NC(=O)N2C3CCCC2C3)cc1-c1ncc(Cl)cn1` [Example 252, N-[3-(5-chloropyrimidin-2-yl)-4-methylphenyl]-6-azabicyclo[3.1.1]heptane-6-carboxamide], which IC50 [1] is on record?
**A.** Its IC50 is 0.5 µM.

**Q.** What about the IC50 [2] of the same molecule?
**A.** Its IC50 is 0.0001 to 1 µM.

**Q.** `Cc1ccc(NC(=O)[C@H]2CC[C@@H](C)N2c2ncccn2)cc1-c1ncc(F)cn1` [Example 287, (2R,5R)-N-[3-(5-fluoropyrimidin-2-yl)-4-methylphenyl]-5-methyl-1-pyrimidin-2-ylpyrrolidine-2-carboxamide] was tested. Which IC50 [3] did it give?
**A.** Its IC50 is 1 to 10 µM.

**Q.** What about the IC50 [1] of the same molecule?
**A.** The IC50 was 2.1 µM.

**Q.** What does the source list for `Cc1ccc(NC(=O)N2C3C[C@@H](C)C[C@H]2C3)cc1-c1cc(F)ccn1` [Example 224, cis-N-[3-(4-fluoropyridin-2-yl)-4-methylphenyl]-3-methyl-6-azabicyclo[3.1.1]heptane-6-carboxamide]?
**A.** IC50 [1]: 0.04 µM; IC50 [2]: 0.0001 to 1 µM

**Q.** `Cc1ccc(NC(=O)N2CCC[C@H]2c2ccccc2)cc1-c1ccccn1` [Example 96, (2S)-N-(4-methyl-3-pyridin-2-ylphenyl)-2-phenylpyrrolidine-1-carboxamide] was tested. Which IC50 [1] did it give?
**A.** The IC50 was 0.7 µM.

**Q.** What about the IC50 [2] of the same molecule?
**A.** The IC50 was 0.0001 to 1 µM.

**Q.** `Cc1ccc(NC(=O)N2C3CC2CN(CC(F)F)C3)cc1-c1ccccn1` [Example 5, 3-(2,2-difluoroethyl)-N-(4-methyl-3-(pyridin-2-yl)phenyl)-3,6-diazabicyclo[3.1.1]heptane-6-carboxamide] was tested. Which IC50 [1] did it give?
**A.** The IC50 was 0.8 µM.

**Q.** And the IC50 [2]?
**A.** Its IC50 is 0.0001 to 1 µM.

**Q.** What does the source list for `Cc1ccc(NC(=O)[C@H]2CC[C@@H](C(F)(F)F)N2c2ccccn2)cc1-c1ncc(F)cn1` [Example 276, (2R,5S)-N-[3-(5-fluoropyrimidin-2-yl)-4-methylphenyl]-1-pyridin-2-yl-5-(trifluoromethyl) pyrrolidine-2-carboxamide]?
**A.** IC50 [3]: 1 to 10 µM; IC50 [1]: 6.3 µM

**Q.** How did the IC50 [1] turn out when `Cc1ccc(NC(=O)N2C3C[C@@H]2CC[C@H]3C)cc1-c1ccccn1` (single isomer, unassigned) [Example 48, trans-2-methyl-N-(4-methyl-3-(pyridin-2-yl)phenyl)-6-azabicyclo[3.1.1]heptane-6-carboxamide] was run?
**A.** Its IC50 is 0.1 µM.

**Q.** What about the IC50 [2] of the same molecule?
**A.** The IC50 was 0.0001 to 1 µM.

**Q.** Which IC50 [3] does the source give for `Cc1ccc(NC(=O)[C@H]2[C@@H](C)CCN2c2ccccn2)cc1-c1ncc(F)cn1` [Example 277, (2R,3S)-N-[3-(5-fluoropyrimidin-2-yl)-4-methylphenyl]-3-methyl-1-pyridin-2-ylpyrrolidine-2-carboxamide] here?
**A.** Its IC50 is 1 to 10 µM.

**Q.** What about the IC50 [1] of the same molecule?
**A.** Its IC50 is 1.4 µM.

**Q.** What does the source list for `Cc1ccc(NC(=O)N2[C@@H]3C[C@@H](C)C[C@H]2C3)cc1-c1cncc(C#N)n1` [Example 238, cis-N-[3-(6-cyanopyrazin-2-yl)-4-methylphenyl]-3-methyl-6-azabicyclo[3.1.1]heptane-6-carboxamide]?
**A.** IC50 [1]: 0.04 µM; IC50 [2]: 0.0001 to 1 µM

**Q.** How did the IC50 [1] turn out when `Cc1cc(F)c(NC(=O)N2[C@@H]3C[C@@H](C)C[C@H]2C3)cc1-c1ncccn1` [Example 253, cis-N-(2-fluoro-4-methyl-5-pyrimidin-2-ylphenyl)-3-methyl-6-azabicyclo[3.1.1]heptane-6-carboxamide] was run?
**A.** The IC50 was 0.08 µM.

**Q.** And the IC50 [2]?
**A.** The IC50 was 0.0001 to 1 µM.

**Q.** How did the IC50 [3] turn out when `CC[C@H]1C[C@@H]1C(=O)Nc1ccc(C)c(-c2ccccn2)c1` (single isomer, unassigned) [Example 107, trans-2-ethyl-N-(4-methyl-3-pyridin-2-ylphenyl)cyclopropane-1-carboxamide] was run?
**A.** Its IC50 is > 10 µM.

**Q.** What about the IC50 [1] of the same molecule?
**A.** The IC50 was 18 µM.

**Q.** For `N#CCc1ccc(NC(=O)[C@@H]2CC2(F)F)cc1-c1ccccn1` [Example 145, (1S)-N-[4-(cyanomethyl)-3-pyridin-2-ylphenyl]-2,2-difluorocyclopropane-1-carboxamide], which IC50 [3] is on record?
**A.** The IC50 was 1 to 10 µM.

**Q.** What about the IC50 [1] of the same molecule?
**A.** The IC50 was 5 µM.

**Q.** Which results are given for `COc1cccc(-c2cc(NC(=O)[C@@H]3CC3(F)F)ccc2C)n1` [Example 153, (1S)-2,2-difluoro-N-[3-(6-methoxypyridin-2-yl)-4-methylphenyl]cyclopropane-1-carboxamide]?
**A.** IC50 [3]: > 10 µM; IC50 [1]: 18 µM

**Q.** Which results are given for `Cc1ccc(NC(=O)N2CC(C3CC3)C2)cc1-c1ccccn1` [Example 25, 3-cyclopropyl-N-(4-methyl-3-(pyridin-2-yl)phenyl)azetidine-1-carboxamide]?
**A.** IC50 [3]: 1 to 10 µM; IC50 [1]: 6.7 µM

**Q.** For `Cc1ccc(NC(=O)N2C3C[C@@H](C#N)C[C@@H]2C3)cc1-c1ccccn1` [Example 75, trans-3-cyano-N-(4-methyl-3-(pyridin-2-yl)phenyl)-6-azabicyclo[3.1.1]heptane-6-carboxamide], which IC50 [1] is on record?
**A.** Its IC50 is 0.4 µM.

**Q.** What about the IC50 [2] of the same molecule?
**A.** The IC50 was 0.0001 to 1 µM.

**Q.** For `Cc1ccc(NC(=O)N2C3CC(C)CC2(C(C)O)C3)cc1-c1ncc(F)cn1` (single isomer, unassigned) [Example 194, cis-N-(3-(5-fluoropyrimidin-2-yl)-4-methylphenyl)-1-(1-hydroxyethyl)-3-methyl-6-azabicyclo[3.1.1]heptane-6-carboxamide], which IC50 [1] is on record?
**A.** Its IC50 is 0.01 µM.

**Q.** What about the IC50 [2] of the same molecule?
**A.** Its IC50 is 0.0001 to 1 µM.

**Q.** For `Cc1ccc(NC(=O)CN2C(=O)COCc3ccccc32)cc1-c1ccccn1` [Example 144, N-(4-methyl-3-pyridin-2-ylphenyl)-2-(2-oxo-5H-4,1-benzoxazepin-1-yl)acetamide], which IC50 [3] is on record?
**A.** The IC50 was 1 to 10 µM.

**Q.** What about the IC50 [1] of the same molecule?
**A.** The IC50 was 9.7 µM.

**Q.** With `Cc1ccc(NC(=O)N2C3CC2CC(C(F)(F)F)C3)cc1-c1ccccn1` (single isomer, unassigned) [Example 86, N-(4-methyl-3-pyridin-2-ylphenyl)-3-(trifluoromethyl)-6-azabicyclo[3.1.1]heptane-6-carboxamide] as the molecule, how does the IC50 [1] read?
**A.** The IC50 was 0.01 µM.

**Q.** And the IC50 [2]?
**A.** The IC50 was 0.0001 to 1 µM.

**Q.** `Cc1ccc(NC(=O)[C@@H]2C[C@H](C(F)(F)F)CN2c2ncccn2)cc1-c1cccnn1` [Example 174, (2S,4S)—N-(4-methyl-3-(pyridazin-3-yl)phenyl)-1-(pyrimidin-2-yl)-4-(trifluoromethyl)pyrrolidine-2-carboxamide] was tested. Which IC50 [3] did it give?
**A.** The IC50 was > 10 µM.

**Q.** What about the IC50 [1] of the same molecule?
**A.** Its IC50 is 25 µM.

**Q.** Which IC50 [1] does the source give for `C[C@@H]1C[C@@H]2C[C@H](C1)N2C(=O)Nc1cc(-c2cccnn2)c(C(F)(F)F)cc1F` [Example 245, cis-N-[2-fluoro-5-pyridazin-3-yl-4-(trifluoromethyl)phenyl]-3-methyl-6-azabicyclo[3.1.1]heptane-6-carboxamide] here?
**A.** Its IC50 is 0.2 µM.

**Q.** What about the IC50 [2] of the same molecule?
**A.** Its IC50 is 0.0001 to 1 µM.

**Q.** What does the source list for `Cc1cc(F)c(NC(=O)N2CC3CC2c2ccccc23)cc1-c1cccnn1` (single isomer, unassigned) [Example 201, N-(2-fluoro-4-methyl-5-pyridazin-3-ylphenyl)-9-azatricyclo[6.2.1.02,7]undeca-2(7),3,5-triene-9-carboxamide]?
**A.** IC50 [3]: 1 to 10 µM; IC50 [1]: 2 µM

**Q.** For `Cc1ccc(NC(=O)[C@H]2C[C@H]3C[C@H]3N2c2ncccn2)cc1-c1ncc(F)cn1` [Example 267, (1R,3R,5R)-N-[3-(5-fluoropyrimidin-2-yl)-4-methylphenyl]-2-pyrimidin-2-yl-2-azabicyclo[3.1.0]hexane-3-carboxamide], which IC50 [3] is on record?
**A.** Its IC50 is 1 to 10 µM.

**Q.** What about the IC50 [1] of the same molecule?
**A.** The IC50 was 3.1 µM.

**Q.** What does the source list for `Cc1ccc(NC(=O)N2CC[C@@H]3[C@@H](C)[C@@H]3C2)cc1-c1ccccn1` (racemic) [Example 37, trans-7-methyl-N-(4-methyl-3-(pyridin-2-yl)phenyl)-3-azabicyclo[4.1.0]heptane-3-carboxamide]?
**A.** IC50 [1]: 0.1 µM; IC50 [2]: 0.0001 to 1 µM

**Q.** How did the IC50 [3] turn out when `O=C(Nc1ccc(F)c(-c2ccc(F)cn2)c1)N1C2CCCC1C2` [Example 35, N-(4-fluoro-3-(5-fluoropyridin-2-yl)phenyl)-6-azabicyclo[3.1.1]heptane-6-carboxamide] was run?
**A.** Its IC50 is 1 to 10 µM.

**Q.** And the IC50 [1]?
**A.** Its IC50 is 3.5 µM.
